From patent US12419853B2, “Nanoparticle pharmaceutical delivery system” (ADEIRA PHARMA, LLC, priority 2019, dated 2025)

Key:
[1] = tested on: OVCAR3 human ovarian carcinoma xenograft; assay: OVCAR3 xenograft efficacy; format: in vivo; conditions: CB.17 SCID mice, 4 mg/kg weekly, four doses
Procedure: In this three-arm study, a vehicle control was included, which consisted of the nanoparticle emulsion with no cisplatin. A positive control arm included a conventional formulation of free cisplatin dosed at 4 mg/kg. The test arm included the nanoparticle emulsion at a dose of 4 mg/kg.
60 female CB.17 SCID mice, aged 8 to 12 weeks, were implanted with 1 mm^3 OVCAR3 tumor fragments in the flank. When the tumors had grown to approximately 100-150 mm^3, pairs were matched by tumor size and treatment began. Dosing was carried out weekly on all three arms, for a total of four doses. Body weight and tumor size for each of the mice was taken every other day. No excess toxicity was noted, as evidenced by body weight and observed behavior of the mice. […] The negative control (labeled ‘vehicle’ in FIG. 6) served as a reference for tumor growth in the absence of cisplatin.

[2] = Description: In a fifth alternative example, formulation of a nanoparticle emulsion was attempted as described in example 1, except that no triacetin was used, just safflower oil as the lipid component. […] The maximum solubility was approximately 1000× less than in triacetin.

SMILES: N.N.[Cl][Pt][Cl] [free cisplatin, cisplatin]
- effect on tumor growth [1]: significant reduction in tumor growth

SMILES: CC(=O)O[C@H]1C(=O)[C@@]2(C)[C@H]([C@H](OC(=O)c3ccccc3)[C@]3(O)C[C@H](OC(=O)[C@H](O)[C@@H](NC(=O)c4ccccc4)c4ccccc4)C(C)=C1C3(C)C)[C@]1(OC(C)=O)CO[C@@H]1C[C@@H]2O [paclitaxel]
- maximum solubility in safflower oil, fold less than in triacetin [2]: approximately 1000 ×
